Measurements as given in article PMC8745299, “Generation of Lasso Peptide-Based ClpP Binders” (International Journal of Molecular Sciences, 2021).
“And” between values parts separate entries of the source, which are not always exact repeats. Identical values can stand only once. Like-named read-outs stand apart in the source and are kept apart here. Bridge positions count the residues as written; N and C are the ends. Peptide text beside a SMILES is read from it.

Tests used:
[1] = test system: ClpPs from different organisms; conditions: fully assembled ClpX hexamer; cited from earlier work
From the text: ClpX carries six coupled IGF motifs in a rather favorable orientation.

BsClpP (monomer) = biological target: T1, BsClpP (monomer) (Bacillus subtilis, UniProt P80244); experiment: Peptidase activity of BsClpP, predominantly monomeric preparation; format: biochemical, B. subtilis
T1 construct: His-tag (C); made in house; host or cells: E. coli BL21 (DE3)
Protocol: (§1) Peptide degradation assays were performed in black flat-bottom 96-well plates with a total reaction volume of 100 μL and reaction temperatures of 32 °C and 37 °C for SaClpP and BsClpP, respectively. Stock solutions of ADEP2 and MccJ25 WT or variants were dissolved in DMSO and pre-diluted to 100× of the final concentration. Accordingly, 1 μL of the respective stock solution was placed at the bottom of the wells. […] 50 μL of a 2× enzyme solution (final assay concentration: 1 μM) in activity buffer was added to the plate and incubated for 15 min at 32 °C and 37 °C for SaClpP and BsClpP activity assays, respectively. The enzyme reaction was started by addition of 49 μL of a solution of the fluorogenic model peptide substrate Suc-Leu-Tyr-AMC in activity buffer at a final concentration of 200 μM. For SaClpP assays, the activity buffer was comprised of 100 mM NaCl and 100 mM HEPES at pH 7. […] The fluorescence read-out was measured using a Tecan (Crailsheim, Germany) M200Pro plate reader (excitation/emission: 380/460 nm) every 30–60 s for 1 h. Enzyme velocity was determined by linear regression of the initial segment of the fluorescence-time plot in GraphPad Prism 5 (GraphPad Software, San Diego, CA, USA). […]

BsClpP tetradecamer = biological target: T2, BsClpP tetradecamer (Bacillus subtilis, UniProt P80244); experiment: Peptidase activity of pre-purified tetradecameric BsClpP; format: biochemical, B. subtilis; conditions: read-out: EC50, BsClpP14 peptidase activity
T2 construct: His-tag (C); made in house; host or cells: E. coli BL21 (DE3)
Protocol: as §1

BsClpP = biological target: T3, BsClpP (Bacillus subtilis, UniProt P80244); experiment: BsClpP peptidase activity, preparation not specified; format: biochemical, B. subtilis
T3 construct: His-tag (C); made in house; host or cells: E. coli BL21 (DE3)
Protocol: (§2) Peptide degradation assays were performed in black flat-bottom 96-well plates with a total reaction volume of 100 μL and reaction temperatures of 32 °C and 37 °C for SaClpP and BsClpP, respectively. Stock solutions of ADEP2 and MccJ25 WT or variants were dissolved in DMSO and pre-diluted to 100× of the final concentration. Accordingly, 1 μL of the respective stock solution was placed at the bottom of the wells. […] 50 μL of a 2× enzyme solution (final assay concentration: 1 μM) in activity buffer was added to the plate and incubated for 15 min at 32 °C and 37 °C for SaClpP and BsClpP activity assays, respectively. The enzyme reaction was started by addition of 49 μL of a solution of the fluorogenic model peptide substrate Suc-Leu-Tyr-AMC in activity buffer at a final concentration of 200 μM. For SaClpP assays, the activity buffer was comprised of 100 mM NaCl and 100 mM HEPES at pH 7. BsClpP activity buffer (50 mM Tris-HCl, 25 mM MgCl2, 200 mM KCl, 2 mM DTT, pH 8) was used in BsClpP assays as well as in SaClpP experiments, where the buffer composition was supposed to lead to oligomeric breakdown of the SaClpP tetradecamer to allow testing the activity retaining effect of ClpP agonists. The fluorescence read-out was measured using a Tecan (Crailsheim, Germany) M200Pro plate reader (excitation/emission: 380/460 nm) every 30–60 s for 1 h. Enzyme velocity was determined by linear regression of the initial segment of the fluorescence-time plot in GraphPad Prism 5 (GraphPad Software, San Diego, CA, USA). All assays were performed in triplicate and repeated at least two times.

SaClpP = biological target: T4, SaClpP (Staphylococcus aureus, UniProt Q2G036); experiment: Peptide (Suc-LY-AMC) degradation by SaClpP in destabilizing Tris buffer pH 8; format: biochemical, S. aureus; design: Strep-tag (C); made in house; host or cells: E. coli BL21 (DE3); conditions: Tris buffer pH 8, 32 °C
T4 sequence (Q2G036 1-195): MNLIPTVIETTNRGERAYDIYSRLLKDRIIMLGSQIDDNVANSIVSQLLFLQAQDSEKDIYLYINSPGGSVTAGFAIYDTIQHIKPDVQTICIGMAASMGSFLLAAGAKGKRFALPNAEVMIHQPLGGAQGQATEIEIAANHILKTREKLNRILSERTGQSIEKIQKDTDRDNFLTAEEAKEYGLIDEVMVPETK
From the text: In order to assess the different MccJ25 variants, we first chose S. aureus ClpP (SaClpP) as a model peptidase and performed in vitro degradation assays with the fluorogenic model peptide substrate Suc-LY-AMC. […] To investigate whether the MccJ25 variants can exert a stabilizing effect on the oligomeric structure of tetradecameric SaClpP, we conducted peptide degradation assays under destabilizing conditions employing a Tris buffer at pH 8.
This experimental setup was then used to differentiate the MccJ25 variants regarding their effect on ClpP stability. […] The apparent affinity constant was deduced from enzyme activity assays and represents the effector molecule concentration at half maximal stimulation of enzyme activity (the lower the apparent affinity constant, the higher the affinity). To exclude that 12IGF serves as a SaClpP substrate, we incubated a mixture of SaClpP and 12IGF under assay conditions for up to 260 min.
as §2

[2] = biological target: T5, S. aureus ClpP (Staphylococcus aureus), Q2G036; experiment: SEC; analytical gel filtration, Superdex 200 3.2 Increase; SaClpP in Tris buffer pH 8 (50 mM Tris-HCl, 25 mM MgCl2, 200 mM KCl, 2 mM DTT) with 12IGF; conditions: remark: other sources report otherwise
T5 chain: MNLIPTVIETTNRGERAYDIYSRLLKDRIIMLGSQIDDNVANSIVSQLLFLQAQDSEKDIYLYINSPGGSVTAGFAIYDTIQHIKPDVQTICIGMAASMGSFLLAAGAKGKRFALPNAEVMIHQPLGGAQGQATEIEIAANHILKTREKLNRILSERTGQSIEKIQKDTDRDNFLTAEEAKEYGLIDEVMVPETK

[3] = biological target: T5, S. aureus ClpP (Staphylococcus aureus), …; experiment: SEC; analytical gel filtration, Superdex 200 3.2 Increase; SaClpP in Tris buffer pH 8 (50 mM Tris-HCl, 25 mM MgCl2, 200 mM KCl, 2 mM DTT) with ADEP2; conditions: remark: other sources report otherwise
[4] = biological target: T5, S. aureus ClpP (Staphylococcus aureus), …; experiment: SEC; analytical gel filtration, Superdex 200 3.2 Increase; SaClpP diluted 10x in BsClpP activity buffer (50 mM Tris-HCl, 25 mM MgCl2, 200 mM KCl, 2 mM DTT, pH 8), no effector; conditions: remark: other sources report otherwise
[5] = biological target: T5, S. aureus ClpP (Staphylococcus aureus), …; experiment: SEC; gel filtration of apo-SaClpP in HEPES buffer, pH 7 (purification: Superdex 200 HiLoad 16/600, 100 mM NaCl, 20 mM HEPES, pH 7; analytical: Superdex 200 3.2 Increase, 100 mM HEPES, 100 mM NaCl, pH 7); conditions: remark: other sources report otherwise

T3 sequence (P80244 whole entry): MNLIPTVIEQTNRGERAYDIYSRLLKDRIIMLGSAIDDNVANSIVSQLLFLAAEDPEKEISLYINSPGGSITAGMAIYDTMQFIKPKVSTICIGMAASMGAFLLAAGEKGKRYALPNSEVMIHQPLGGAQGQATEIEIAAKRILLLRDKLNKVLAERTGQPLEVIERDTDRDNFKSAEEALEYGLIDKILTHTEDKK
T1 sequence (P80244 whole entry): as above
T2 sequence (P80244 whole entry): as above

Molecule: ClpX: Clp-ATPase ClpX hexamer carrying six coupled IGF motifs
- ClpP affinity relative to ADEP2 [1]: weaker affinities than ADEP2

Molecule: CC[C@H](C)[C@H](NC(=O)[C@@H](NC(=O)[C@H](Cc1ccccc1)NC(=O)[C@H](Cc1ccc(O)cc1)NC(=O)[C@@H]1CCC(=O)NCC(=O)NCC(=O)N[C@@H](C)C(=O)NCC(=O)N[C@@H](Cc2c[nH]cn2)C(=O)N[C@@H](C(C)C)C(=O)N2CCC[C@H]2C(=O)N1)C(C)C)C(=O)NCC(=O)N[C@@H](Cc1ccccc1)C(=O)N[C@H](C(=O)N1CCC[C@H]1C(=O)N[C@H](C(=O)N[C@@H](CO)C(=O)N[C@@H](Cc1ccccc1)C(=O)N[C@@H](Cc1ccc(O)cc1)C(=O)NCC(=O)O)[C@@H](C)CC)[C@@H](C)O [12IGF] (GGAGHVPEYFVIGFTPISFYG-OH; lactam N-8)
- EC50 (BsClpP (monomer); 5 μM ADEP2, Tris pH 8, 37 °C, ± S.D., two separate experiments, read-out: EC50, BsClpP1 peptidase activity (+ADEP2)): 60.2 ± 3.78 µM
- EC50 (BsClpP (monomer); with ADEP2 (Figure 5C), Tris pH 8, 37 °C, read-out: apparent affinity constant, BsClpP activation in the presence of ADEP2): 60 µM
- EC50 (BsClpP tetradecamer): 60.3 ± 12.1 µM
- EC50 relative to ADEP (BsClpP; 12IGF EC50 in SaClpP and BsClpP peptidase assays vs EC50 values measured for ADEP): exceeded the EC50 values measured for ADEP by one to two orders of magnitude
- EC50 (BsClpP; Figure 5C,D, with or without ADEP2 not specified, 37 °C): 60 µM
- EC50 (SaClpP; 1 μM SaClpP, 200 μM Suc-Leu-Tyr-AMC, 15 min pre-incubation, fluorescence 380/460 nm, ± S.D., three independent experiments, read-out: EC50, stabilizing effect on SaClpP peptidase activity): 26 ± 3.32 µM
- EC50 (SaClpP; effector concentration at half maximal stimulation of enzyme activity, Suc-Leu-Tyr-AMC, read-out: apparent affinity constant, stabilizing effect on SaClpP peptidase activity): ~26 µM and 26 µM

B1: S. aureus ClpP, Q2G036 1-195 (enzyme)
chain: MNLIPTVIETTNRGERAYDIYSRLLKDRIIMLGSQIDDNVANSIVSQLLFLQAQDSEKDIYLYINSPGGSVTAGFAIYDTIQHIKPDVQTICIGMAASMGSFLLAAGAKGKRFALPNAEVMIHQPLGGAQGQATEIEIAANHILKTREKLNRILSERTGQSIEKIQKDTDRDNFLTAEEAKEYGLIDEVMVPETK
- stoichiometry N [2]: 14
- stoichiometry N [3]: 14
- stoichiometry N [4]: 7
- stoichiometry N [5]: 14
